Assay results taken from US20240325420A1, “COMPOSITION INCLUDING PAEONIFLORIN FOR PREVENTION OR TREATMENT OF CACHEXIA AND MUSCLE LOSS” (CHUNG ANG UNIVERSITY INDUSTRY ACADEMIC COOPERATION …, priority 2021, published 2024).

Tests used:
[1] = system: muscle-specific ubiquitin E3 ligases (MuRF1 and MAFbx); assay: Protein levels of MuRF1 and MAFbx in gastrocnemius muscle by Western blotting; format: in vivo; details: C57BL/6 mice, cisplatin-treated, Pae 10 and Pae 20 vs vehicle
Procedure: (§1) In addition, cisplatin-treated mice orally administered the same volume of distilled water were designated as the vehicle group. After completion of drug treatment, the mice of each group were euthanized with 10 mg/kg alfaxalone (Jurox, Rutherford, Australia). Blood was collected in test tubes containing EDTA, and centrifuged, and plasma was separated therefrom. Gastrocnemius and quadriceps skeletal muscles were dissected and weighed. The skeletal muscles were rapidly frozen in liquid nitrogen to be used for RT-qPCR, Western blotting, and ELISA.
Proteins were extracted from skeletal muscle using NucleoSpin kits (Macherey-Nagel, Duren, Germany) and quantified using the BCA Protein Assay Kit (Pierce, Rockford, IL, USA). Anti-β-actin antibody was used to quantify protein loading. For myosin protein (MyHC, myosin heavy chain), myogenic factor (MyoD), and NF-κB signaling system (p-IKK, IKK, p-IκB, and IκB), protein levels in the gastrocnemius muscle were measured by Western blotting. Band intensities were quantified using ImageJ software (NIH, Bethesda, MD, USA).
In order to measure the mRNA and protein levels of major factors involved in muscle loss, muscle contraction, and muscle differentiation, the mRNA and protein levels in the skeletal muscle tissues from C57BL/6 mice were measured by real-time PCR and Western blotting.

[2] = system: TNF-α, IL-6, IL-1β, IL-1α, CCL2 and CCL5; assay: mRNA levels of pro-inflammatory cytokines and chemokines in skeletal muscle by real-time PCR, C57BL/6 mice; format: in vivo; details: cisplatin-treated, Pae 10 and Pae 20 vs vehicle
Procedure: as §1
Total RNA was isolated from skeletal muscle using Qiazol (Qiagen, Germany), and then the mRNA levels of pro-inflammatory cytokines and muscle-specific ubiquitin E3 ligases (MuRF1 and MAFbx) were measured by real-time PCR.
The mRNA levels of pro-inflammatory cytokines such as TNF-α, IL-6, IL-1β, and IL-1α, as well as chemokines such as CCL2 and CCL5, in the skeletal muscle, were measured by real-time PCR.

[3] = system: TNF-α, IL-6 and IL-1β; assay: Protein levels of pro-inflammatory cytokines in gastrocnemius muscle, Balb/c mice; format: in vivo; details: cisplatin-treated
Procedure: as §1
(§2) The levels of TNF-α and interleukin (IL)-6 were measured using respective mouse ELISA kits (Invitrogen, Waltham, MA, USA). IL-1β and GDF-15 levels were measured using respective Quantikine ELISA kits (R&D Systems, Minneapolis, MN, USA).

[4] = system: GDF-15; assay: Plasma GDF-15 by ELISA in mice with cisplatin-induced cachexia; format: in vivo; details: C57B/6 mice; cisplatin plus paeoniflorin-treated group vs cisplatin-treated group; FIG. 13B
Procedure: as §1, §2
The protein concentration of GDF-15 in the plasma was analyzed by ELISA.

[5] = system: Balb/c mice with colon-26 carcinoma-induced cachexia; assay: Body weight and muscle mass in Balb/c mice with colon-26 carcinoma-induced cachexia; format: in vivo; details: colon-26 carcinoma-injected, paeoniflorin orally once daily for 9 days vs colon-26 carcinoma-injected group
Procedure: (§3) As the experimental animals, 4-week-old female C57BL/6 mice and Balb/c mice weighing 18 g to 20 g were purchased from Raon Bio (Yongin, Korea), acclimatized in the laboratory animal facility for one week, and then used in the experiment. During the experiment period, the animals were provided with solid feed and water ad libitum, and the breeding room was maintained at a temperature of 20° C. to 24° C. and a relative humidity of 55% to 65% with a 12-hr light/12-hr dark cycle.
(§4) Mice were divided into a control group and a cachexia-induced group, and the cachexia-induced group was subdivided into a tumor cell-injected group, a tumor cell-injected and existing drug (MA, megestrol acetate)-administered group, and tumor cell-injected and paeoniflorin (Pae)-administered groups. Each group consisted of 10 animals.
(§5) Each mouse of the control group was injected subcutaneously with 100 μL of saline solution. For the cachexia-induced groups, Lewis lung carcinoma cells (C57BL/6 mice) or colon-26 carcinoma cells (Balb/c mice) were injected subcutaneously into the flank area of each mouse at a dose of 10^6 cells/100 μL/mouse. […] After completion of 9 days of administration, the muscle strength of the mice was measured using a grip strength test device (Bioseb, USA), and the endurance of the mice was measured using a treadmill device (Columbus Instrument, USA).
After completion of the experiment, the mice were euthanized, blood was collected therefrom, the body weight excluding tumors, and the weights of the hind limb gastrocnemius muscle and quadriceps muscle were measured. GDF-15 in the serum was quantified by ELISA.

[6] = system: Balb/c mice with colon-26 carcinoma-induced cachexia; assay: Muscle strength and endurance in Balb/c mice with colon-26 carcinoma-induced cachexia; format: in vivo; details: colon-26 carcinoma-injected, paeoniflorin orally for 9 days
Procedure: as §3, §4, §5

[7] = system: C2C12 myoblasts; assay: Myotube differentiation of C2C12 myoblasts; format: cell-based
Procedure: C2C12 myoblasts were purchased from ATCC (Manassas, Virginia, USA) and cultured using DMEM containing 10% fetal bovine serum. After the cells reached 70% confluence, myotube differentiation was induced while the medium was replaced with DMEM containing 2% horse serum every two days. A negative control group was treated with […] of TNF-α, which inhibits myotube differentiation. While the myoblasts were treated with paeoniflorin at a concentration of 50 to 200 μM along with TNF-α, the degree of myotube differentiation was observed and the length of differentiated myotubes was measured using the Image J program.

C[C@@]12C[C@@]3(O)O[C@@H](O1)[C@]1(COC(=O)c4ccccc4)[C@H]3C[C@@]12O[C@@H]1O[C@H](CO)[C@@H](O)[C@H](O)[C@H]1O [paeoniflorin]
MuRF1 protein level ([1]; FIG. 6A): decreased
MAFbx protein level ([1]; FIG. 6B): decreased
TNF-α mRNA expression level in the muscle ([2]; FIG. 8A): decreased
IL-6 mRNA expression level in the muscle ([2]; FIG. 8B): decreased
IL-1β mRNA expression level in the muscle ([2]; FIG. 8C): decreased
IL-1α mRNA expression level in the muscle ([2]; FIG. 8D): decreased
CCL2 mRNA expression level in the muscle ([2]; FIG. 8E): decreased
CCL5 mRNA expression level in the muscle ([2]; FIG. 8F): decreased
TNF-α protein level in the gastrocnemius muscle ([3]; FIG. 9A): similarly obtained
IL-6 protein level in the gastrocnemius muscle ([3]; FIG. 9B): similarly obtained
IL-1β protein level in the gastrocnemius muscle ([3]; FIG. 9C): similarly obtained
plasma concentration of GDF-15 [4]: significantly decreased
body weight ([5]; FIG. 15A): significantly increased
weight of gastrocnemius muscle ([5]; FIG. 15B): significantly increased
weight of quadriceps muscle ([5]; FIG. 15C): significantly increased
muscle strength ([6]; FIG. 17A): significantly increased
endurance ([6]; FIG. 17B): significantly increased
myotube differentiation ([7]; paeoniflorin 50 to 200 μM along with TNF-α, FIG. 19): promoted
myotube length ([7]; paeoniflorin-treated groups vs negative control group (TNF-α+Pae 0 μM), FIG. 20): significantly increased
